Article PMC9751290, “Design, synthesis, in vitro, in silico, and SAR studies of flavone analogs towards anti-dengue activity” (Scientific Reports, 2022)
“Also recorded” adds a separate entry of the source. Where two headings read alike, the source gives them in different places.

Experiments:
DENV2 NGC = assay: Screening antiviral efficacy: viral inhibition at 10 µM in DENV2-infected LLC/MK2 cells, plaque titration; type: cell-based, DENV2 (New Guinea C strain); conditions: for inhibition at 10 µM: Dengue virus
Procedure: The flavone analogs were preliminary screened for their viral inhibitory activity against DENV2 NGC (accession number NC_001474.2) in a LLC/MK2 (ATCC CCL-7™) cell-based system at the final concentration of 10 μM. […] On the other hand, the acylation of the hydroxy groups on the A-ring yielded mixed results.
LLC/MK2 cells (5 × 10^4) were seeded in 24-well plate and incubate at 37 °C under 5% CO2 overnight. Cells were infected with DENV2 NGC at a multiplicity of infection (M.O.I. of 0.1) and compounds at 10 µM were added and DMSO at 1% was used as control. Cultured plates were incubated for 1 h with gentle rocking every 15 min. Cells were washed with PBS, MEM supplemented with 1% FBS, 100 I.U./mL penicillin, and 100 µg/mL streptomycin, 10 mM HEPES was added in a presence of a compound at 10 µM. Cells were incubated at 37 °C with 5% CO2 for 3 days. Supernatants were collected to determine viral titers by plaque titration assay as previously described. The selected compounds were further analyzed for an effective concentration (EC50).

[1] = Cellular toxicity in LLC/MK2 cells (MTS assay); type: cell-based; conditions: rhesus monkey
Procedure: Cytotoxicity of the compounds was also accessed at the concentration of 10 µM in parallel with the viral inhibition screening. LLC/MK2 cells (1 × 10^4) were seeded in 96-well plate and incubated at 37 °C under 5% CO2 overnight; compounds were added after 24 h, and then incubated for 2 days. DMSO at 1% was used as mock treatment. Cytotoxicity was measured using CellTiter 96® Aqueous One Solution Cell Proliferation Assay (MTS) kit (Promega, Wisconsin-Madison, WI, USA) according to the manufacturer’s instruction and analyzed by EnSight Multimode Plate Reader spectrophotometry at A450nm. (Perkin Elmer, Waltham, MA, USA).

DENV2 [2] = tested on: DENV2; design: method as in PMID 23140177, PMID 29057920; conditions: data according to literature (footnote f); read-out: EC50 (50% effective concentration against DENV2); cited from earlier work
[3] = tested on: DENV2 replication in Vero cells; design: method as in PMID 31441148, PMID 23140177; conditions: cited from earlier work
DENV2 [4] = assay: Antiviral efficacy (EC50) against DENV2 in LLC/MK2 cells, plaque titration; type: cell-based, DENV2 (New Guinea C strain); conditions: for EC50: Dengue virus, DENV2, LLC/MK2 cells, three independent experiments, read-out: EC50 (50% effective concentration against DENV2); for fold increase in activity compared with 8-bromobaicalein 5f / fold more active than the original baicalein 5a: EC50 against DENV2
Procedure: LLC/MK2 (ATCC® CCL-7), and C6/36 (ATCC® CRL-1660) cell lines were propagated and maintained as previously described[18],[29],[31]. Effective concentration (EC50) of the compounds against the DENV2 were tested using LLC/MK2 cells[18],[29]. Briefly, cells were seeded overnight and infected with each virus at the multiplicity of infection (M.O.I.) of 0.1 for 1 h. The compound was added during and after infection, and cells were incubated for 72 h. Supernatants were collected for plaque titration. EC50 results were means and standard errors of three independent experiments.

[5] = Cellular toxicity in LLC/MK2 cells (MTS assay); type: cell-based; conditions: rhesus monkey; remark: listed apart in the source
dengue virus = tested on: dengue virus; design: method as in PMID 28389141; conditions: mice administered with luteolin; cited from earlier work
[6] = 10 μM, DENV2 NGC-infected LLC/MK2 cells, NA = not active, read-out: %Inhibition (%viral inhibition against DENV2)
[7] = DENV2, LLC-MK2, read-out: %Inhibition (%viral inhibition against DENV2)
[8] = 10 μM, read-out: %Viability in LLC/MK2 cell

COc1cc2oc(-c3ccc(Br)cc3)cc(=O)c2c(OC)c1OC [5j, 4′-Bromo-5,6,7-trimethoxylflavone]
inhibition at 10 µM (DENV2 NGC; [6]): 70.4% | viability at 2 days, 10 µM [1]: 101 ± 11.1%

COc1cc2oc(-c3ccc(N)cc3)cc(=O)c2c(OC)c1OC [5l, 4′-Amino-5,6,7-trimethoxyflavone]
inhibition at 10 µM (DENV2 NGC; [6]): 62% | viability at 2 days, 10 µM [1]: 93 ± 2.36%

COc1ccc2c(=O)cc(-c3ccccc3)oc2c1 [2b, 7-Methoxyflavone]
inhibition at 10 µM (DENV2 NGC; [7]): 37.5% | viability at 2 days, 10 µM [1]: 84.5 ± 3.34%

O=c1cc(-c2ccccc2)oc2cc(O)cc(O)c12 [4a, chrysin]
inhibition at 10 µM (DENV2 NGC; [6]): 16.7% | viability at 2 days, 10 µM [1]: 84.8 ± 2.03%

O=c1cc(-c2ccccc2)oc2cc(O)c(O)c(O)c12 [5a, baicalein]
EC50 (DENV2 [2]): 23900 nM | IC50 [3]: 23900 nM | selectivity index (SI) [3]: 17.8 | inhibition at 10 µM (DENV2 NGC; [7]): 75% | viability at 2 days, 10 µM [1, 8]: 92.9 ± 1.44%

O=c1cc(-c2ccccc2)oc2c(O)c(O)ccc12 [3a, 7,8-dihydroxyflavone]
inhibition at 10 µM (DENV2 NGC; [7]): 58.3% | viability at 2 days, 10 µM [1, 8]: 79.4 ± 3.2%

CCC(=O)Oc1cc2oc(-c3ccccc3)cc(=O)c2c(O)c1OC(=O)CC [5e, 5-Hydroxy-6,7-dipropionoxyflavone]
melting point: 132 to 134 °C | inhibition at 10 µM (DENV2 NGC; [6]): 91.7% | EC50 (DENV2 [4]): 68 ± 40 nM | fold increase in activity compared with 8-bromobaicalein 5f (DENV2 [4]): over tenfold; also recorded: more than tenfold | fold more active than the original baicalein 5a (DENV2 [4]): over 300 fold | CC50 at 2 days [5]: > 100000 nM | viability at 2 days, 10 µM [1]: 89.6 ± 5.95%

COc1cc2oc(-c3ccccc3)cc(=O)c2c(O)c1OC [5b, 5-Hydroxy-6,7-dimethoxyflavone]
inhibition at 10 µM (DENV2 NGC; [6]): 80% | viability at 2 days, 10 µM [1]: 97.5 ± 2.47%

Nc1ccc(-c2cc(=O)c3c(O)c(O)c(O)cc3o2)cc1 [5o, 4′-Amino-5,6,7-trihydroxyflavone]
viability at 2 days, 10 µM [1]: 109 ± 2.53%

CCC(=O)Oc1ccc2oc(-c3ccccc3)cc(=O)c2c1 [1c, 6-Propionoxyflavone]
inhibition at 10 µM (DENV2 NGC; [6]): 73% | viability at 2 days, 10 µM [1]: 89.18 ± 0.78%

O=c1cc(-c2ccc(O)c(O)c2)oc2cc(O)cc(O)c12 [luteolin]
reduction of the virus load (dengue virus): tenfold reduction

COc1cc2oc(-c3ccccc3)cc(=O)c2c(OC)c1OC [5i, 5,6,7-Trimethoxyflavone]
inhibition at 10 µM (DENV2 NGC; [6]): 44.4% | viability at 2 days, 10 µM [1]: 96.8 ± 11.9%

COc1cc2oc(-c3ccc([N+](=O)[O-])cc3)cc(=O)c2c(OC)c1OC [5k, 5,6,7-Trimethoxy-4′-nitroflavone]
inhibition at 10 µM (DENV2 NGC; [6]): 70% | viability at 2 days, 10 µM [1]: 101 ± 1.97%

O=c1cc(-c2ccccc2)oc2cc(O)ccc12 [2a, 7-hydroxyflavone]
inhibition at 10 µM (DENV2 NGC; [6]): 37.5% | viability at 2 days, 10 µM [1, 8]: 122 ± 7.21%

COc1cc2oc(-c3ccc(Br)cc3)cc(=O)c2c(O)c1OC [5p, 4′-Bromo-5-hydroxy-6,7-dimethoxyflavone]
inhibition at 10 µM (DENV2 NGC; [6]): 64.8% | viability at 2 days, 10 µM [1]: 96.8 ± 5.28%

O=c1cc(-c2ccccc2)oc2c(Br)c(O)c(O)c(O)c12 [5f, 8-Bromo-5,6,7-trihydroxyflavone]
EC50 (DENV2 [2]): 880 ± 140 nM | inhibition at 10 µM (DENV2 NGC; [7]): 100% | viability at 2 days, 10 µM [1]: 73.4 ± 14.8%

COc1ccc2oc(-c3ccccc3)cc(=O)c2c1 [1b, 6-Methoxyflavone]
inhibition at 10 µM (DENV2 NGC; [7]): 77% | viability at 2 days, 10 µM [1]: 95.2 ± 8.12%

O=c1cc(-c2ccccc2)oc2cc(OCc3ccccc3)cc(O)c12 [4c, 7-Benzyloxy-5-hydroxyflavone]
viability at 2 days, 10 µM [1]: 86.1 ± 3.05%

O=c1cc(-c2ccccc2)oc2c(Br)c(O)c(Br)c(O)c12 [4d, 6,8-Dibromo-5,7-dihydroxyflavone]
EC50 (DENV2 [2]): 1470 ± 860 nM | inhibition at 10 µM (DENV2 NGC; [7]): 83% | viability at 2 days, 10 µM [1]: 101.1 ± 0.44%

COc1cc(O)c2c(=O)cc(-c3ccccc3)oc2c1 [4b, 5-Hydroxy-7-methoxyflavone]
inhibition at 10 µM (DENV2 NGC; [6]): 16.7% | viability at 2 days, 10 µM [1]: 97.5 ± 1%

Nc1c(O)cc(O)c2c(=O)cc(-c3ccccc3)oc12 [4f, 8-Amino-5,7-dihydroxyflavone]
viability at 2 days, 10 µM [1]: 93.4 ± 3.29%

CC(=O)Oc1cc2oc(-c3ccccc3)cc(=O)c2c(OC(C)=O)c1OC(C)=O [5c, 5,6,7-Triacetoxyflavone]
inhibition at 10 µM (DENV2 NGC; [7]): 100% | EC50 (DENV2 [4]): 410 ± 560 nM | viability at 2 days, 10 µM [1, 8]: 107 ± 7.34%

O=c1cc(-c2ccc([N+](=O)[O-])cc2)oc2cc(O)c(O)c(O)c12 [5n, 5,6,7-Trihydroxy-4′-nitroflavone]
inhibition at 10 µM (DENV2 NGC; [6]): 100% | EC50 (DENV2 [4]): 4300 ± 560 nM | viability at 2 days, 10 µM [1]: 78.5 ± 9.87%

COc1cc2oc(-c3ccc([N+](=O)[O-])cc3)cc(=O)c2c(O)c1O [5r, 5,6-Dihydroxy-7-methoxy-4′-nitroflavone]
melting point: 174 to 178 °C | inhibition at 10 µM (DENV2 NGC; [6]): 22.2% | viability at 2 days, 10 µM [1]: 91.6 ± 0.89%

CCC(=O)Oc1cc2oc(-c3ccccc3)cc(=O)c2c(OC(=O)CC)c1OC(=O)CC [5d, 5,6,7-Tripropionoxyflavone]
inhibition at 10 µM (DENV2 NGC; [7]): 90% | EC50 (DENV2 [4]): 70 ± 15 nM | fold increase in activity compared with 8-bromobaicalein 5f (DENV2 [4]): over tenfold; also recorded: more than tenfold | fold more active than the original baicalein 5a (DENV2 [4]): over 300 fold | CC50 at 2 days ([5]; LLC/MK2 cells, read-out: CC50): > 100000 nM | viability at 2 days, 10 µM [1, 8]: 83.8 ± 2.61%

CCC(=O)Oc1ccc2c(=O)cc(-c3ccccc3)oc2c1 [2c, 7-Propionoxyflavone]
inhibition at 10 µM (DENV2 NGC; [6]): 37.5% | viability at 2 days, 10 µM [1]: 115 ± 1.55%

CC(=O)Oc1c(OC(C)=O)c(OC(C)=O)c2c(=O)cc(-c3ccccc3)oc2c1Br [5g, 5,6,7-Triacetoxy-8-bromoflavone]
inhibition at 10 µM (DENV2 NGC; [6]): 100% | EC50 (DENV2 [4]): 260 ± 140 nM | viability at 2 days, 10 µM [1]: 50.9 ± 3.22%

COc1cc2oc(-c3ccc([N+](=O)[O-])cc3)cc(=O)c2c(O)c1OC [5q, 5-Hydroxy-6,7-dimethoxy-4′-nitroflavone]
melting point: 145 to 150 °C | inhibition at 10 µM (DENV2 NGC; [6]): 98.2% | EC50 (DENV2 [4]): 4520 ± 760 nM | viability at 2 days, 10 µM [1]: 84.7 ± 5.07%

O=c1cc(-c2ccccc2)oc2c3c(ccc12)OCO3 [3b, 7,8-Dioxoloflavone]
viability at 2 days, 10 µM [1]: 96.6 ± 1.01%

O=c1cc(-c2ccccc2)oc2ccc(O)cc12 [1a, 6-hydroxyflavone]
inhibition at 10 µM (DENV2 NGC; [6]): 90% | viability at 2 days, 10 µM [1]: 69.5 ± 14.3%

CCC(=O)Oc1c(OC(=O)CC)c(OC(=O)CC)c2c(=O)cc(-c3ccccc3)oc2c1Br [5h, 8-Bromo-5,6,7-tripropionoxyflavone]
melting point: 113 to 115 °C | %Inhibition (%viral inhibition against DENV2) (DENV2 NGC; 10 μM, DENV2 NGC-infected LLC/MK2 cells, NA = not active): inactive | viability at 2 days, 10 µM [1]: 84.5 ± 6.56%

O=c1cc(-c2ccc(Br)cc2)oc2cc(O)c(O)c(O)c12 [5m, 4′-Bromo-5,6,7-trihydroxyflavone]
inhibition at 10 µM (DENV2 NGC; [6]): 100% | EC50 (DENV2 [4]): 520 ± 120 nM | viability at 2 days, 10 µM [1]: 90 ± 6.61%

O=c1cc(-c2ccccc2)oc2c([N+](=O)[O-])c(O)cc(O)c12 [4e, 5,7-Dihydroxy-8-nitroflavone]
inhibition at 10 µM (DENV2 NGC; [7]): 33.3% | viability at 2 days, 10 µM [1, 8]: 52.5 ± 2.59%
